The supplement of paper PMC10307832

Tests used:
Assay in all cases: relative viability (nuclei count vs DMSO), 5 days (fraction); higher = more cells survive
[1] = compound: COC1=CC=C(C=C1)CN2C=CC3=C2C=C(C=C3)C(=O)NO + Cc1nc(NC(=O)N2CCC[C@H]2C(N)=O)sc1-c1ccnc(C(C)(C)C(F)(F)F)c1 [Alpelisib] (partner 2 µM)
Method in brief: (§1)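 After 5 days of treatment, lung cancer cells in 1536-well plates were fixed and stained in a single step (final 0.05% Triton X-100, 1% formaldehyde, 1 ug/ml Hoechst) and their nuclei counted on 4× images. Treatment had been applied by pin tool the day after seeding as one drug alone or as a fixed anchor-drug dose with five library-drug doses (not always all listed) in √10 steps. Relative viability is the nuclei count of treated wells divided by that of vehicle wells, and values are medians of duplicate plates.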

[2] = compound: COC1=CC=C(C=C1)CN2C=CC3=C2C=C(C=C3)C(=O)NO + O=C(c1cc(Cc2n[nH]c(=O)c3ccccc23)ccc1F)N1CCN(C(=O)C2CC2)CC1 [Olaparib] (partner 8 µM)
Method in brief: as §1

[3] = compound: C[C@]1(c2nc3c(C(N)=O)cccc3[nH]2)CCCN1 [Veliparib] + CC(C)C[C@H](NC(=O)[C@H](Cc1ccccc1)NC(=O)c1cnccn1)B(O)O [Bortezomib] (partner 0.002 µM)
Method in brief: as §1

[4] = compound: C[C@]1(c2nc3c(C(N)=O)cccc3[nH]2)CCCN1 [Veliparib] + C[C@]1(O)C[C@@H](c2nc(-c3ccc4ccc(-c5ccccc5)nc4c3)c3c(N)nccn32)C1 [Linsitinib] (partner 1 µM)
Method in brief: as §1

Cell Line	relative viability ([1]; first compound 0.08 µM)	relative viability ([1]; first compound 0.253 µM)	relative viability ([1]; first compound 0.8 µM)	relative viability ([1]; first compound 2.53 µM)	relative viability ([1]; first compound 8 µM)	relative viability ([2]; first compound 0.08 µM)	relative viability ([2]; first compound 0.253 µM)	relative viability ([2]; first compound 0.8 µM)	relative viability ([2]; first compound 2.53 µM)	relative viability ([2]; first compound 8 µM)	relative viability ([3]; first compound 0.02 µM)	relative viability ([3]; first compound 0.06325 µM)	relative viability ([3]; first compound 0.2 µM)	relative viability ([3]; first compound 0.6325 µM)	relative viability ([3]; first compound 2 µM)	relative viability ([4]; first compound 0.02 µM)	relative viability ([4]; first compound 0.06325 µM)	relative viability ([4]; first compound 0.2 µM)	relative viability ([4]; first compound 0.6325 µM)	relative viability ([4]; first compound 2 µM)
RERF-LC-KJ	0.765	0.796	0.83	0.95	0.83	0.829	0.825	0.986	0.816	0.806	1.07	0.928	1.15	1.02	1.05	0.894	0.787	0.823	0.837	0.818
NCI-H1703	0.337	0.324	0.328	0.344	0.381		0.581	0.817	0.491	0.46	0.366	0.308	0.408	0.354	0.426	0.17	0.63	1.22	0.604	0.974
NCI-H647	0.981	1.23	1.16	1.21	0.954	0.557	0.537	0.422	0.495	0.547	1.23	1	0.847	0.985	0.965	1.09	1.01	0.989	1.02	1.09
NCI-H1299	1.09	1.05	1.05	1.08	1.04	1.04	0.98	0.948	1.03	0.92	1.04	0.979	1.02	1.03	1	0.905	0.931	0.921	0.898	0.988
NCI-H460	0.36	0.535	0.506	0.359	0.338	0.426	0.457	0.401	0.465	0.397		0.952	1.01	1.07	1.09		0.806	0.664	0.527	0.72
SK-LU-1	1.01	1.04	1.11	1.11	0.81	0.436	0.443	0.627	0.449	0.422	1.51	1.03	0.984	1.36	0.589	1.2	1.01	1.17	1.06	1.17
LU99A		0.552	0.624	0.605	0.479		0.277	0.262	0.252	0.26	1.16	1.1	0.833	1.06	1.29	0.579	0.61	0.565	0.475	0.525
UMC-11	0.526	0.986	0.92	1.12	1.05	0.373	0.355	0.415	0.911	0.373	0.592	0.727	0.668	0.685	0.667	1.06	1	1.08	0.963	0.961
PC-3 [JPC-3]	1.02	1.02	1.01	1.13	1.02	1.1		1.11	1.19	1.14	0.821	0.789	0.85	0.815	0.785	0.929	0.921	0.917	0.883	0.972
A-427		1.15	1.13	1.15	1.06	0.251		0.71	0.711	0.724	0.969	0.936	0.929	0.99	0.959	1.21	1.05	1.04	1.03	1.14
HCC-366		0.435	0.384	0.587	0.406	0.237	0.338	0.371	0.375	0.292	1.06	1.05	1.01	1.07	1.07	0.511	0.623	0.536	0.572	0.574
LCLC-97TM1		0.242	0.242	0.255	0.233		0.422	0.375	0.36	0.38		0.269	0.554	1.12	0.834	0.185	0.187	0.194		0.25
NCI-H2085	0.968	0.981	1.1	0.969	1.02	0.803	0.723	0.842	0.777	0.768	0.655	0.915	0.898	1.07	0.862	0.929	0.871	0.854	0.779	0.965
NCI-H1666	1.07	1.04	1.01	1.04	1.36	0.746	0.737	0.745	0.682	0.818	0.879	0.599	0.81	0.666	0.875	0.93	0.557	0.865	0.671	0.838
HCC-78		0.359	0.395	0.35	0.305	0.748	0.776	0.815	0.968	0.535	0.537	0.482	0.639	0.428	0.474	0.612	0.53	0.592	0.36	0.541
201T	0.948	1.08	1.07	1.03	1	0.846	0.833	0.881	0.844	0.832	1.09	1.07	1.06	1.18	1.08	1.08	1.06	0.995	1.02	1.01
NCI-H596	0.532	0.53	0.384	0.561	0.474	0.66	0.778	0.735	0.805	0.725	1.14	1	1.06	1.11	0.902	1	1.02	1.07	0.893	0.99
